{
  "source": "patent US7544664B2",
  "about": "“Sequences facilitating penetration of a substance of interest” (priority 2003, dated 2009)",
  "key": {"[1]": {"test_system": "HCT116: human colon carcinoma", "assay": "cells", "format": "cell-based", "details": "for IC50: read-out: IC50 values; for more efficient than Chl: HCT116 colon carcinoma", "procedure": "HCT116: human colon carcinoma (origin: ATCC #CCL-247)\n(§1) Viability assays were performed. Briefly, cells are seeded in 96-well plates and incubated with increasing concentrations of drugs (i) for 1 hour then cells are rinsed and incubated with fresh medium without drugs for 48 hours, or (ii) for 48 hours. A WST-1 test (from Roche) was performed and IC50 values (drug concentration that inhibits 50% of cell viability) were estimated from sigmoidal regressions.\n(§2) DPV15-E-Chl conjugate was compared to non-conjugated Chl and 5FUra for the inhibition of in vitro cell proliferation of human carcinoma and leukemia cells. We calculated IC50 values=drug concentration that inhibits 50% of cell viability."}, "[2]": {"test_system": "HT29: human colon carcinoma", "assay": "cells", "format": "cell-based", "details": "for IC50: read-out: IC50 values", "procedure": "HT29: human colon carcinoma, low P-gp expression (origin: ATCC #HTB-38)\nas §1, §2"}, "[3]": {"test_system": "K562: human chronic myelogenous leukemia", "assay": "Viability assay (WST-1)", "format": "cell-based", "procedure": "K562: human chronic myelogenous leukemia (CML) (origin: ATCC #CCL-243).\nas §1, §2"}, "[4]": {"assay": "Stability in H2O+0.1% TFA overnight at room temperature", "format": "physicochemical", "details": "protected from light, Chl 0.1 mg/ml, DPV15-E-Chl 0.5 mg/ml in H2O+0.1% TFA", "procedure": "After overnight incubation at room temperature and protected from light, both Chl (0.1 mg/ml in H2O+0.1% TFA) and DPV15-E-Chl (0.5 mg/ml in H2O+0.1% TFA) are degraded (50% degradation)."}, "[5]": {"assay": "Solubility in water / aqueous solutions"}, "[6]": {"test_system": "Candida albicans (ATCC 90028)", "assay": "Lethal murine candidiasis model", "format": "in vivo, mice", "details": "single i.v. 3 hours after inoculation", "procedure": "Test substances (DPV15-AmB and AmB (Fungizone)) and vehicule control were administrated i.v. with doses ranging from 0.25 mg/kg to 2.5 mg/kg AmB equivalent to test animals 3 hours after the fungal inoculation. Mortality was recorded once daily for 8 days."}, "[7]": {"assay": "Single dose toxicity, intravenous injection", "format": "in vivo, mice", "procedure": "The single dose toxicity of the DPV15-AmB conjugate was assessed by mortality and/or body weight loss after a single dose intravenous injection. Mice were treated with DPV15-AmB 2.57, 3.68, 5.52, 7.36, 9.2, 18.4 and 36.8 mg/kg with vehicle (NaCl/H2O 9/1 v/v). These different doses correspond to 0.7, 1, 1.5, 2, 2.5, 5 and 10 mg/kg of AMB respectively. The dose of 1 mg/kg corresponds to the MTD of AmB exposed in the literature (Tabosa Do Egito et al., In-vitro and In-vivo evaluation of a new amphothericin B emulsion-based delivery system. J Antimicrob Vhemother. 1996 September; 38(3):485-97)."}, "[8]": {"details": "HCT116 colon, 1 h incubation + 48 h"}, "[9]": {"details": "HT29 colon, 1 h incubation + 48 h"}, "[10]": {"details": "HT29 colon carcinoma, short exposure"}},
  "note": "Where two headings read alike, the source gives them in different places. Where a SMILES comes first, the peptide text is derived from it. The star is where a group is joined. X1 = C[C@@H]1[C@H](O)[C@@H](C)/C=C/C=C/C=C/C=C/C=C/C=C/C=C/[C@H](O[C@@H]2O[C@H](C)[C@@H](O)[C@H](NC(=O)CCCCCN3C(=O)CC(*)C3=O)[C@@H]2O)C[C@@H]2O[C@](O)(C[C@@H](O)C[C@@H](O)[C@H](O)CC[C@@H](O)C[C@@H](O)CC(=O)O[C@H]1C)C[C@H](O)[C@H]2C(=O)O; X2 = O=C(CCCCCN1C(=O)CC(*)C1=O)OCCOC(=O)CCCc1ccc(N(CCCl)CCCl)cc1",
  "data": [
    {"compound": "O=c1[nH]cc(F)c(=O)[nH]1", "note": "[5FUra]", "values": [
      {"measurement": "IC50", "setting": "[1]; [8]", "result": "113 ± 40", "unit": "µM"},
      {"measurement": "IC50", "setting": "[1]; HCT116 colon, 48 h incubation", "result": "8.5 ± 7.9", "unit": "µM"},
      {"measurement": "IC50", "setting": "[2]; [9]", "result": "> 1000", "unit": "µM"},
      {"measurement": "IC50", "setting": "[2]; HT29 colon, 48 h incubation", "result": "725 ± 388", "unit": "µM"}
    ]},
    {"compound": "O=C(O)CCCc1ccc(N(CCCl)CCCl)cc1", "note": "[Chl, Chlorambucil]", "values": [
      {"measurement": "IC50", "setting": "[3]; Homo sapiens, 1 h incubation + 48 h", "result": "> 500", "unit": "µM"},
      {"measurement": "IC50", "setting": "[3]; Homo sapiens, 48 h incubation", "result": "250 ± 70", "unit": "µM"},
      {"measurement": "IC50", "setting": "[1]; Homo sapiens, HCT-116, 48 h", "result": "200 ± 70", "unit": "µM"},
      {"measurement": "IC50", "setting": "[2]; Homo sapiens, HT-29, 48 h", "result": "250 ± 70", "unit": "µM"},
      {"measurement": "degradation after overnight incubation", "setting": "[4]", "result": 50, "unit": "%"},
      {"measurement": "Solubility in water / aqueous solutions", "setting": "[5]", "result": "not soluble"}
    ]},
    {"compound": "CC(C)C[C@H](NC(=O)[C@H](CCCNC(=N)N)NC(=O)[C@H](CO)NC(=O)[C@H](CCC(N)=O)NC(=O)[C@H](CCCNC(=N)N)NC(=O)[C@H](CCC(=O)O)NC(=O)[C@H](CCCNC(=N)N)NC(=O)[C@H](CCCNC(=N)N)NC(=O)[C@@H](N)CC(C)C)C(=O)N[C@@H](CCCNC(=N)N)C(=O)N[C@@H](CCCNC(=N)N)C(=O)N[C@@H](CCC(=O)O)C(=O)N[C@@H](CCCNC(=N)N)C(=O)N[C@@H](CCC(N)=O)C(=O)N[C@@H](CO)C(=O)N[C@@H](CCCNC(=N)N)C(=O)N[C@@H](CSC1CC(=O)N(CCCCCC(=O)N[C@@H]2[C@H](O)[C@H](O[C@H]3/C=C/C=C/C=C/C=C/C=C/C=C/C=C/[C@H](C)[C@@H](O)[C@@H](C)[C@H](C)OC(=O)C[C@H](O)C[C@H](O)CC[C@@H](O)[C@H](O)C[C@H](O)C[C@]4(O)C[C@H](O)[C@@H](C(=O)O)[C@H](C3)O4)O[C@H](C)[C@H]2O)C1=O)C(=O)O", "note": "(stereo partly shown) [DPV15-AmB] (H-LRRERQSRLRRERQSRC(X1)-OH)", "values": [
      {"measurement": "survival on day 8", "setting": "[6]; 0.5 mg/kg AmB equivalent", "result": 50, "unit": "%"},
      {"measurement": "survival on day 8", "setting": "[6]; 1 mg/kg AmB equivalent", "result": 50, "unit": "%"},
      {"measurement": "mortality", "setting": "[7]; 18.4 mg/kg, 24 hours after the injection", "result": 1, "unit": "mouse was found dead"},
      {"measurement": "loss of initial body weight", "setting": "[7]; 18.4 mg/kg, two surviving mice, 24 hours after the injection", "result": "about 12%"},
      {"measurement": "Acute lethal toxicity", "setting": "[7]; 36.8 mg/kg (10 mg/kg of AMB), single i.v.", "result": "observed"},
      {"measurement": "effect on the body weight at Day 28", "setting": "[7]; 2.57, 3.68, 5.52, 7.36 and 9.2 mg/kg, single i.v.", "result": "no effect"},
      {"measurement": "MTD at 28 day", "setting": "[7]; mouse, in vivo, iv, single i.v., conjugate dose, read-out: maximal tolerated dose", "result": "9.2 to 18.4", "unit": "mg/kg"}
    ]},
    {"compound": "CC(C)C[C@H](NC(=O)[C@H](CCCNC(=N)N)NC(=O)[C@H](CO)NC(=O)[C@H](CCC(N)=O)NC(=O)[C@H](CCCNC(=N)N)NC(=O)[C@H](CCC(=O)O)NC(=O)[C@H](CCCNC(=N)N)NC(=O)[C@H](CCCNC(=N)N)NC(=O)[C@@H](N)CC(C)C)C(=O)N[C@@H](CCCNC(=N)N)C(=O)N[C@@H](CCCNC(=N)N)C(=O)N[C@@H](CCC(=O)O)C(=O)N[C@@H](CCCNC(=N)N)C(=O)N[C@@H](CCC(N)=O)C(=O)N[C@@H](CO)C(=O)N[C@@H](CCCNC(=N)N)C(=O)N[C@@H](CSC1CC(=O)N(CCCCCC(=O)OCCOC(=O)CCCc2ccc(N(CCCl)CCCl)cc2)C1=O)C(=O)O", "note": "(stereo partly shown) [DPV15-E-Chl] (H-LRRERQSRLRRERQSRC(X2)-OH)", "values": [
      {"measurement": "IC50", "setting": "[3]; 1 h incubation + 48 h", "result": 30, "unit": "µM"},
      {"measurement": "IC50", "setting": "[3]; 48 h incubation", "result": 30, "unit": "µM"},
      {"measurement": "more efficient than Chl", "setting": "[3]; long exposure", "result": 8, "unit": "fold"},
      {"measurement": "more efficient than Chl", "setting": "[3]; short exposure", "result": "≥ 16", "unit": "fold"},
      {"measurement": "more efficient than Chl", "setting": "[1]; long exposure", "result": 8, "unit": "fold"},
      {"measurement": "more efficient than Chl", "setting": "[1]; short exposure", "result": 12, "unit": "fold"},
      {"measurement": "IC50", "setting": "[1]; [8]", "result": "43 ± 15", "unit": "µM"},
      {"measurement": "IC50", "setting": "[1]; HCT116 colon, 48 h incubation", "result": "25 ± 7", "unit": "µM"},
      {"measurement": "more efficient than 5FUra", "setting": "[2]; [10]", "result": "≥ 17", "unit": "fold"},
      {"measurement": "more efficient than Chl", "setting": "[2]; [10]", "result": 11, "unit": "fold"},
      {"measurement": "IC50", "setting": "[2]; [9]", "result": 60, "unit": "µM"},
      {"measurement": "IC50", "setting": "[2]; HT29 colon, 48 h incubation", "result": 325, "unit": "µM"},
      {"measurement": "degradation after overnight incubation", "setting": "[4]", "result": 50, "unit": "%"},
      {"measurement": "solubility", "setting": "[5]", "result": "≥ 10000", "unit": "µg/mL"}
    ]}
  ]
}
